# Test results taken from patent US12447156B2, “Treating progressive familial intrahepatic cholestasis (PFIC) with IBAT inhibitors” (ALBIREO AB, priority 2020, dated 2025).
# Tested on: children with PFIC
# Assay: Pooled analysis of PEDFIC 1 and PEDFIC 2 (up to 48 weeks): efficacy, sleep, responders vs nonresponders
# Assay type: in vivo, human
# Source text: This example describes key outcomes with odevixibat in children with PFIC1 (familial intrahepatic cholestasis 1 [FIC1] deficiency) or PFIC2 ((bile salt export pump [BSEP] deficiency) based on pooled analysis of data from the phase 3 PEDFIC 1 (P1; NCT03566238) and PEDFIC 2 (P2; NCT03659916) studies. This pooled analysis covers up to 48 weeks of odevixibat treatment from P1 and through the planned P2 interim data cut. The following outcomes are described: change in serum bile acids (sBAs), change in pruritus score (measured using the PRUCISION scale; range: 0-4), evaluation of growth and sleep parameters, and safety monitoring. Mean changes in autotaxin (linked to cholestatic pruritus intensity) and plasma 7α-hydroxy-4-cholesten-3-one (p-C4; marker of bile acid synthesis) levels were also summarized.
# Patient sleep was evaluated based on caregiver report using the PRUCISION scale and via the clinician- or caregiver-reported Global Impression of Change (CGIC or CaGIC, respectively) sleep scales. Treatment response was defined as an sBA response (sBAs<65 or <102 μmol/L for patients with PFIC1 and PFIC2, respectively) or a pruritus response (a ≥1-point drop from baseline in pruritus score). Mean decreases in caregiver-reported percentage of days with scratching associated with bleeding, needing help falling asleep, and needing soothing were greater among Rs vs NRs (Table 10). At week 48, clinicians and caregivers reported that ≥88% of Rs had moderately or very much better sleep since starting odevixibat (Table 10).
# Using pooled data from these studies, changes in parameters of cholestasis, pruritus, and hepatic laboratory markers in patients who responded to odevixibat treatment (Rs) vs treatment nonresponders (NRs). Two responder definitions were examined: 1) sBA response (i.e., sBAs<65 or <102 μmol/L for PFIC1 and PFIC2, respectively) and 2) sBA response or pruritus response (i.e., a ≥1-point drop from baseline in PRUCISION score).
# [1] = patients with liver enzyme data at baseline
# [2] = patients with liver enzyme data at week 4
# [3] = patients with liver enzyme data at week 24
# [4] = patients with liver enzyme data at week 48
# [5] = pooled P1+P2, all odevixibat-treated patients
# [6] = pooled P1+P2, baseline to weeks 37-48
# [7] = sBA or pruritus response No, week 24, n 21
# [8] = sBA or pruritus response No, weeks 1-4, n 28
# [9] = sBA or pruritus response No, weeks 21-24, n 22
# [10] = sBA or pruritus response No, weeks 45-48, n 2
# [11] = sBA or pruritus response Yes, weeks 1-4, n 47
# [12] = sBA or pruritus response Yes, weeks 21-24, n 34
# [13] = sBA or pruritus response Yes, weeks 45-48, n 18
# [14] = week 4, sBA or Pruritus Response No
# [15] = week 4, sBA or Pruritus Response Yes
# [16] = week 24, sBA or Pruritus Response No
# [17] = week 24, sBA or Pruritus Response Yes
# [18] = week 48, sBA or Pruritus Response No
# [19] = week 48, sBA or Pruritus Response Yes
compound,measurement,setting,value
"CCCCC1(CCCC)CN(c2ccccc2)c2cc(SC)c(OCC(=O)N[C@@H](C(=O)N[C@@H](CC)C(=O)O)c3ccc(O)cc3)cc2S(=O)(=O)N1 [Odevixibat, 1,1-dioxo-3,3-dibutyl-5-phenyl-7-methylthio-8-(N-{(R)-α-[N-((S)-1-carboxypropyl)carbamoyl]-4-hydroxybenzyl}carbamoylmethoxy)-2,3,4,5-tetrahydro-1,2,5-benzothiadiazepine]","sBA or pruritus responders, n (responder rate [n/(n + m)] * 100)",[1],48 (63) n (%)
same,"sBA responders, n (responder rate [n/(n + m)] * 100)",[1],24 (39) n (%)
same,"sBA or pruritus responders, n (responder rate [n/(n + m)] * 100)",[2],43 (61) n (%)
same,"sBA responders, n (responder rate [n/(n + m)] * 100)",[2],23 (39) n (%)
same,"sBA or pruritus responders, n (responder rate [n/(n + m)] * 100)",[3],31 (62) n (%)
same,"sBA responders, n (responder rate [n/(n + m)] * 100)",[3],19 (40) n (%)
same,"sBA or pruritus responders, n (responder rate [n/(n + m)] * 100)",[4],18 (75) n (%)
same,"sBA responders, n (responder rate [n/(n + m)] * 100)",[4],15 (63) n (%)
same,mean change from baseline to week 48 in alanine aminotransferase (ALT),[5],−82 U/L
same,mean change from baseline to week 48 in total bilirubin,[5],-18 µmol/L
same,mean change in height Z score,"pooled P1+P2, baseline to week 48",0.5
same,mean change in observer-reported percentage of days needing help falling asleep,[6],−52%
same,mean change in observer-reported percentage of days needing soothing,[6],−51%
same,mean change in observer-reported percentage of days seeing blood due to scratching,[6],−25%
same,mean change in observer-reported percentage of days sleeping with caregiver,[6],−40%
same,patients who met sBA response criteria,"pooled P1+P2, during the analysis period, regardless of genotype",≥ 50%
same,mean change from baseline in sBAs,"pooled P1+P2, end of the analysis period (up to 48 weeks), n=24",-213 µmol/L
same,mean change in pruritus score,"pooled P1+P2, end of the analysis period (up to 48 weeks), n=32",−1.4
same,mean change in sBAs,"pooled P1+P2, four weeks after starting odevixibat, n=68, baseline 250",-88 µmol/L
same,mean change in pruritus score,"pooled P1+P2, over the first 4-week period, n=75, baseline 2.9",−0.7
same,mean positive pruritus assessments (PPAs),"pooled P1+P2, patients with PFIC1",48%
same,mean positive pruritus assessments (PPAs),"pooled P1+P2, patients with PFIC2 (including BSEP subtypes 1 and 2)",above 60%
same,mean height Z score,"pooled P1+P2, week 48, n=20, baseline −1.9 (n=75)",−0.8
same,mean weight Z score,"pooled P1+P2, week 48, n=21, baseline −1.1 (n=75)",−0.0
same,rate of sBA or pruritus responders,"pooled P1+P2, weeks 0-24",57%
same,rate of sBA responders,"pooled P1+P2, weeks 0-24",31%
same,rate of sBA or pruritus responders,"pooled P1+P2, weeks 25-36",60%
same,rate of sBA responders,"pooled P1+P2, weeks 25-36",48%
same,rate of sBA or pruritus responders,"pooled P1+P2, weeks 37-48",65%
same,rate of sBA responders,"pooled P1+P2, weeks 37-48",59%
same,"CGIC sleep, moderately or very much better","sBA or pruritus response No, week 4, n 26",30.8%
same,"CaGIC sleep, moderately or very much better","sBA or pruritus response No, week 4, n 28",25.0%
same,"CGIC sleep, moderately or very much better",[7],33.3%
same,"CaGIC sleep, moderately or very much better",[7],23.8%
same,"CaGIC sleep, moderately or very much better","sBA or pruritus response No, week 48, n 3",33.3%
same,"CGIC sleep, moderately or very much better","sBA or pruritus response No, week 48, n 4",25.0%
same,"% Days needing help falling asleep, mean change from baseline",[8],−10.4%
same,"% Days needing soothing, mean change from baseline",[8],−6.0%
same,"% Days with scratching associated with bleeding, mean change from baseline",[8],−6.5%
same,"% days sleeping with caregiver, mean change from baseline",[8],−3.1%
same,"Number of awakenings, mean change from baseline",[8],1.3
same,"% Days needing help falling asleep, mean change from baseline",[9],−4.9%
same,"% Days needing soothing, mean change from baseline",[9],7.8%
same,"% Days with scratching associated with bleeding, mean change from baseline",[9],3.2%
same,"% days sleeping with caregiver, mean change from baseline",[9],3.1%
same,"Number of awakenings, mean change from baseline",[9],1.5
same,"% Days needing help falling asleep, mean change from baseline",[10],−1.8%
same,"% Days needing soothing, mean change from baseline",[10],4.2%
same,"% Days with scratching associated with bleeding, mean change from baseline",[10],12.5%
same,"% days sleeping with caregiver, mean change from baseline",[10],0.0%
same,"Number of awakenings, mean change from baseline",[10],−4.3
same,"CaGIC sleep, moderately or very much better","sBA or pruritus response Yes, week 4, n 39",48.7%
same,"CGIC sleep, moderately or very much better","sBA or pruritus response Yes, week 4, n 42",57.1%
same,"CaGIC sleep, moderately or very much better","sBA or pruritus response Yes, week 24, n 27",70.4%
same,"CGIC sleep, moderately or very much better","sBA or pruritus response Yes, week 24, n 32",59.4%
same,"CaGIC sleep, moderately or very much better","sBA or pruritus response Yes, week 48, n 15",93.3%
same,"CGIC sleep, moderately or very much better","sBA or pruritus response Yes, week 48, n 18",88.9%
same,"% Days needing help falling asleep, mean change from baseline",[11],−23.1%
same,"% Days needing soothing, mean change from baseline",[11],−22.5%
same,"% Days with scratching associated with bleeding, mean change from baseline",[11],−16.8%
same,"% days sleeping with caregiver, mean change from baseline",[11],−23.1%
same,"Number of awakenings, mean change from baseline",[11],-−3.1
same,"% Days needing help falling asleep, mean change from baseline",[12],−56.1%
same,"% Days needing soothing, mean change from baseline",[12],−58.8%
same,"% Days with scratching associated with bleeding, mean change from baseline",[12],−30.9%
same,"% days sleeping with caregiver, mean change from baseline",[12],−48.5%
same,"Number of awakenings, mean change from baseline",[12],-−1.9
same,"% Days needing help falling asleep, mean change from baseline",[13],−73.0%
same,"% Days needing soothing, mean change from baseline",[13],−74.6%
same,"% Days with scratching associated with bleeding, mean change from baseline",[13],−41.5%
same,"% days sleeping with caregiver, mean change from baseline",[13],−69.1%
same,"Number of awakenings, mean change from baseline",[13],−11.0
same,"ALT, change from baseline, Mean (SE)","week 4, sBA Response No",21 (16) U/L
same,"Total bilirubin, change from baseline, Mean (SE)","week 4, sBA Response No",−10 (9) μmol/L
same,"ALT, change from baseline, Mean (SE)","week 4, sBA Response Yes",−28 (37) U/L
same,"Total bilirubin, change from baseline, Mean (SE)","week 4, sBA Response Yes",−8 (4) μmol/L
same,"ALT, change from baseline, Mean (SE)",[14],9 (4) U/L
same,"Total bilirubin, change from baseline, Mean (SE)",[14],−14 (11) μmol/L
same,"ALT, change from baseline, Mean (SE)",[15],−2 (24) U/L
same,"Total bilirubin, change from baseline, Mean (SE)",[15],−6 (4) μmol/L
same,"ALT, change from baseline, Mean (SE)","week 24, sBA Response No",−10 (11) U/L
same,"Total bilirubin, change from baseline, Mean (SE)","week 24, sBA Response No",−19 (10) μmol/L
same,"ALT, change from baseline, Mean (SE)","week 24, sBA Response Yes",−67 (42) U/L
same,"Total bilirubin, change from baseline, Mean (SE)","week 24, sBA Response Yes",−23 (8) μmol/L
same,"ALT, change from baseline, Mean (SE)",[16],5 (8) U/L
same,"Total bilirubin, change from baseline, Mean (SE)",[16],−23 (13) μmol/L
same,"ALT, change from baseline, Mean (SE)",[17],−56 (27) U/L
same,"Total bilirubin, change from baseline, Mean (SE)",[17],−19 (7) μmol/L
same,"ALT, change from baseline, Mean (SE)","week 48, sBA Response No",−32 (22) U/L
same,"Total bilirubin, change from baseline, Mean (SE)","week 48, sBA Response No",−6 (14) μmol/L
same,"ALT, change from baseline, Mean (SE)","week 48, sBA Response Yes",−112 (57) U/L
same,"Total bilirubin, change from baseline, Mean (SE)","week 48, sBA Response Yes",−25 (11) μmol/L
same,"ALT, change from baseline, Mean (SE)",[18],−5 (15) U/L
same,"Total bilirubin, change from baseline, Mean (SE)",[18],1 (20) μmol/L
same,"ALT, change from baseline, Mean (SE)",[19],−108 (48) U/L
same,"Total bilirubin, change from baseline, Mean (SE)",[19],−25 (9) μmol/L
same,responders with moderately or very much better sleep since starting odevixibat (clinician and caregiver reported),"week 48, patients with sBA response or pruritus response",≥ 88%
